Reference: US9815796B2 (Merck Sharp & Dohme Corp., priority 2013, dated 2017)
Read-outs that look alike come from different tables or passages of the source.

Key:
[1] = target: Rhesus PDE2A3 (Macaca mulatta, UniProt B3VTJ2); experiment: PDE2 fluorescence polarization (IMAP FP) inhibition assay, rhesus enzyme; type: biochemical, rhesus macaque
Procedure, shortened: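 IMAP FP (mP from parallel and perpendicular fluorescence against substrate-only control) was read ≥1 h after adding binding reagent. The preceding 60 min room-temperature reaction contained FAM-cAMP (50 nM) and cGMP (1 uM) in pH 7.2 Tris buffer with MgCl2 and DTT. Enzyme was supernatant of sonicated AD293 cells expressing rhesus PDE2A3; compounds were 3-fold titrated, DMSO 1% final.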

[2] = target: human PDE2A1 (Homo sapiens (Human), UniProt O00408); experiment: IMAP FP PDE selectivity panel, human PDE2A1; type: biochemical
human PDE2A1, sequence (O00408 other isoform, or with tags, fused parts or gaps): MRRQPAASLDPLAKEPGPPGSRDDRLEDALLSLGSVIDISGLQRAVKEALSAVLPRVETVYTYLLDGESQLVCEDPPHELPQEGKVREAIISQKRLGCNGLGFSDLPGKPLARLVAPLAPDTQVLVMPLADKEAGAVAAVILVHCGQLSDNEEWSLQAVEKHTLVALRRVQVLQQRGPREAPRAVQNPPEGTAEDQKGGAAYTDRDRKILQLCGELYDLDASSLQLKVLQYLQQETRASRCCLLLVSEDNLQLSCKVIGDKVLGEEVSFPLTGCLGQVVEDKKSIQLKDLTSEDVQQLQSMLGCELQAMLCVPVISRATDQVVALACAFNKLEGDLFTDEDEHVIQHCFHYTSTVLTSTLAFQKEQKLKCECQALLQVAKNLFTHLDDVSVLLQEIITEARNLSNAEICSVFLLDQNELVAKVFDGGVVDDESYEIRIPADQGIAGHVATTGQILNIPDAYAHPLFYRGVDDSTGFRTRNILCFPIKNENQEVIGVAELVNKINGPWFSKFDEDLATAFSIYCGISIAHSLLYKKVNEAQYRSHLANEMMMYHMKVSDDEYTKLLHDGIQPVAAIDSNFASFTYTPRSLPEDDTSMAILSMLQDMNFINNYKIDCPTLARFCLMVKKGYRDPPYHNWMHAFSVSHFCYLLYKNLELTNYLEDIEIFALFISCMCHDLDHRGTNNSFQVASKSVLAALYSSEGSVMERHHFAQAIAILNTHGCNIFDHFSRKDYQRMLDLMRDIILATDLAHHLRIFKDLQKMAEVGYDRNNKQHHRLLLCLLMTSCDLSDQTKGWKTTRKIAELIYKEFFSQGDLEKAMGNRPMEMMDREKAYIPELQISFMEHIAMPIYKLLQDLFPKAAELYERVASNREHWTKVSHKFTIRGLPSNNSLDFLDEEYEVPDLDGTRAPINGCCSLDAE
Procedure, shortened: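 IMAP FP format: substrate 50 nM FAM-cAMP plus 1000 nM cGMP, enzyme (insect-cell GST-tagged human PDE2A1) at ~20% conversion, 60 min reaction at room temperature. Apparent inhibition constants calculated from parallel/perpendicular fluorescence with KM 10,000 nM.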

[3] = Rhesus PDE2, Lab A, read-out: Rhesus PDE2 Ki (nM) - Lab A
[4] = Human PDE2, Lab A, read-out: Human PDE2 Ki (nM) - Lab A
[5] = Rhesus PDE2, Lab B, read-out: Rhesus PDE2 Ki (nM) - Lab B
[6] = Human PDE2, Lab B, read-out: Human PDE2 Ki (nM) - Lab B

Rhesus PDE2A3, sequence (B3VTJ2 1-941): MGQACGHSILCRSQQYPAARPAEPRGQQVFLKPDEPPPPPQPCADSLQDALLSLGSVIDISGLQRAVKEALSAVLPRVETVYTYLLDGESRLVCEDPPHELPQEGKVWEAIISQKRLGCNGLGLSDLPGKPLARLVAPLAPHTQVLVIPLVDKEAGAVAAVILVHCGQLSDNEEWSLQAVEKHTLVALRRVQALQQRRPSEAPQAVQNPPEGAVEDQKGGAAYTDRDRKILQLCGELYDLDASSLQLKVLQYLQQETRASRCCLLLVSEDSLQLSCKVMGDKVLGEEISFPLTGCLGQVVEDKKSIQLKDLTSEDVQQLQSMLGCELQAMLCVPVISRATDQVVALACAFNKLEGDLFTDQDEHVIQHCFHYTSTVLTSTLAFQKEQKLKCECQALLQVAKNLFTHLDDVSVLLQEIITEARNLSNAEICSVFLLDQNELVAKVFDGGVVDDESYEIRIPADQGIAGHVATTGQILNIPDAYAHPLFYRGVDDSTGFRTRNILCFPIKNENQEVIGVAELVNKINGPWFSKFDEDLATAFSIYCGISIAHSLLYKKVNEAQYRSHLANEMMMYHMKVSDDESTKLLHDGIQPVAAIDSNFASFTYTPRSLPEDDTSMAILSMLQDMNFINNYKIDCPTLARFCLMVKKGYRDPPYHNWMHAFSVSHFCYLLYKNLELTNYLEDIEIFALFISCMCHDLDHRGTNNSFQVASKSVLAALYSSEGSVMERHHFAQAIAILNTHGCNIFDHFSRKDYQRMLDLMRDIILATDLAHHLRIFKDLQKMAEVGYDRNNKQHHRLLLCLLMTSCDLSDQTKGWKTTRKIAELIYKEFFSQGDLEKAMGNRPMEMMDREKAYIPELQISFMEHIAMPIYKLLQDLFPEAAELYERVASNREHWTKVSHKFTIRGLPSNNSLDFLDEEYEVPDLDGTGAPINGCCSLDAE

SMILES	Ki [1, 3]	Ki [2, 4]	Ki [1, 5]	Ki [2, 6]
COc1ccc(Cc2nc(C(=O)N[C@@H](c3ccc(OC(F)(F)F)c(F)c3)C3CC3)cc(=O)[nH]2)cc1 [Example 478, N-{(R)-cyclopropyl[3-fluoro-4-(trifluoromethoxy)phenyl]methyl}-2-(4-methoxybenzyl)-6-oxo-1,6-dihydropyrimidine-4-carboxamide]			2.1 nM	1.7 nM
CC(C)[C@@H](NC(=O)c1cc(=O)[nH]c(C2CC2)n1)c1ccc(OC(F)(F)F)cc1 [Example 191, 2-cyclopropyl-N-{(1R)-2-methyl-1-[4-(trifluoromethoxy)phenyl]propyl}-6-oxo-1,6-dihydropyrimidine-4-carboxamide]	3.4 nM	1.2 nM		
C[C@@H](NC(=O)c1cc(=O)[nH]c(-c2ccccc2)n1)c1ccc(C(F)(F)F)c(Cl)c1 [Example 190, N-{(1R)-1-[3-chloro-4-(trifluoromethyl)phenyl]ethyl}-6-oxo-2-phenyl-1,6-dihydropyrimidine-4-carboxamide]	6.4 nM	6.1 nM		
Cc1nc(C(=O)NC2(c3ccc(OC(F)(F)F)c(F)c3)CC2)cc(=O)[nH]1 [Example 67, N-{1-[3-fluoro-4-(trifluoromethoxy)phenyl]cyclopropyl}-2-methyl-6-oxo-1,6-dihydropyrimidine-4-carboxamide]	16 nM	~9.6 nM	19 nM	12 nM
CC[C@@H](NC(=O)c1cc(=O)[nH]c(C)n1)c1ccc(OC(F)(F)F)cc1 [Example 31, 2-methyl-6-oxo-N-{(1R)-1-[4-(trifluoromethoxy)phenyl]propyl}-1,6-dihydropyrimidine-4-carboxamide]	28 nM	15 nM		
CC[C@@H](NC(=O)c1cc(=O)[nH]c(Cc2ccc(OC)cc2)n1)c1ccc(OC(F)(F)F)c(F)c1 [Example 484, N-{(1R)-1-[3-fluoro-4-(trifluoromethoxy)phenyl]propyl}-2-(4-methoxybenzyl)-6-oxo-1,6-dihydropyrimidine-4-carboxamide]			1.3 nM	1.4 nM
CC(NC(=O)c1cc(=O)[nH]c(-c2ncccn2)n1)c1ccc(Br)cc1 (stereo not drawn) [Example 85, N-[1-(4-bromophenyl)ethyl]-6-oxo-1,6-dihydro-2,2′-bipyrimidine-4-carboxamide]	60 nM	41 nM		
CC(C)(C)[C@@H](NC(=O)c1cc(=O)[nH]c(C2CC2)n1)c1ccc(C2CC2)cc1 [Example 447, 2-cyclopropyl-N-[(1R)-1-(4-cyclopropylphenyl)-2,2-dimethylpropyl]-6-oxo-1,6-dihydropyrimidine-4-carboxamide]			1.3 nM	1.4 nM
O=C(N[C@@H](c1ccc(OC(F)(F)F)c(F)c1)C1CC1)c1cc(=O)[nH]c(-c2ccccc2)n1 [Example 176]	4.8 nM	3.9 nM		
COc1ccc(Cc2nc(C(=O)N[C@@H](c3ccc(OC(F)(F)F)c(F)c3)C(C)(C)C)cc(=O)[nH]2)cc1 [Example 464, N-{(1R)-1-[3-fluoro-4-(trifluoromethoxy)phenyl]-2,2-dimethylpropyl}-2-(4-methoxybenzyl)-6-oxo-1,6-dihydropyrimidine-4-carboxamide]			0.6 nM	0.69 nM
CCc1ccc(C(C)NC(=O)c2cc(=O)[nH]c(-c3ncccn3)n2)cc1 (stereo not drawn) [Example 79, N-[1-(4-ethylphenyl)ethyl]-6-oxo-1,6-dihydro-2,2′-bipyrimidine-4-carboxamide]	22 nM		25 nM	35 nM
COC(=O)c1ccc([C@@H](C)NC(=O)c2cc(=O)[nH]c(-c3ccccc3)n2)cc1 [Example 359, methyl 4-[(1R)-1-{[(6-oxo-2-phenyl-1,6-dihydropyrimidin-4-yl)carbonyl]amino}ethyl]benzoate]	62 nM		173 nM	129 nM
Cc1nc(C(=O)NC(C)(C)c2ccc(OC(F)(F)F)c(F)c2)cc(=O)[nH]1 [Example 48, N-{1-[3-fluoro-4-(trifluoromethoxy)phenyl]-1-methylethyl}-2-methyl-6-oxo-1,6-dihydropyrimidine-4-carboxamide]	235 nM	127 nM		80 nM
Cc1nc(C(=O)NC2(c3ccc(C(F)(F)F)cc3)CCC2)cc(=O)[nH]1 [Example 2, 2-methyl-6-oxo-N-{1-[4-(trifluoromethyl)phenyl]cyclobutyl}-1,6-dihydropyrimidine-4-carboxamide]	38 nM	24 nM		
Cc1nc(C(=O)N[C@@H](c2ccc(C(F)(F)F)c(F)c2)C(C)(C)C)cc(=O)[nH]1 [Example 59]			6.4 nM	4.5 nM

The next lines start with the values.

Ki [1, 3]	Ki [2, 4]	Ki [1, 5]	Ki [2, 6]	SMILES
1100 nM	687 nM			COC(=O)C(NC(=O)c1cc(=O)[nH]c(C)n1)c1ccc(C(F)(F)F)cc1 (racemic) [Example 325, Methyl 2-(2-methyl-6-oxo-1,6-dihydropyrimidine-4-carboxamido)-2-(4-(trifluoromethyl)phenyl)-acetate]
14 nM	12 nM			O=C(NC1(c2ccc(C(F)(F)F)cc2)CC1)c1cc(=O)[nH]c(C2CC2)n1 [Example 292, 2-cyclopropyl-6-oxo-N-{1-[4-(trifluoromethyl)phenyl]cyclopropyl}-1,6-dihydropyrimidine-4-carboxamide]
		38 nM	40 nM	CC[C@@H](NC(=O)c1cc(=O)[nH]c(C(C)(C)c2ccc(OC)cc2)n1)c1ccc(SC(F)(F)F)c(F)c1 [Example 496, N-[(1R)-1-{3-fluoro-4-[(trifluoromethyl)sulfanyl]phenyl}propyl]-2-[1-(4-methoxyphenyl)-1-methylethyl]-6-oxo-1,6-dihydropyrimidine-4-carboxamide]
		2.6 nM	1.8 nM	CC(C)(C)[C@@H](NC(=O)c1cc(=O)[nH]c(-c2ccccc2)n1)c1ccc(OC(F)F)cc1 [Example 449, N-{(1R)-1-[4-(difluoromethoxy)phenyl]-2,2-dimethylpropyl}-6-oxo-2-phenyl-1,6-dihydropyrimidine-4-carboxamide]
4.5 nM	3 nM			C[C@@H](NC(=O)c1cc(=O)[nH]c(-c2ccccc2)n1)c1ccc(OC(F)(F)F)cc1 [Example 275, 6-oxo-2-phenyl-N-{(1R)-1-[4-(trifluoromethoxy)phenyl]ethyl}-1,6-dihydropyrimidine-4-carboxamide]
		1.4 nM	1.5 nM	COc1ccc(Cc2nc(C(=O)N[C@@H](c3ccc(C(F)(F)F)cc3)C(C)C)cc(=O)[nH]2)cc1 [Example 474, 2-(4-methoxybenzyl)-N-{(1R)-2-methyl-1-[4-(trifluoromethyl)phenyl]propyl}-6-oxo-1,6-dihydropyrimidine-4-carboxamide]
~11 nM		24 nM	19 nM	CSCC(NC(=O)c1cc(=O)[nH]c(-c2ccccc2)n1)c1ccc(C(F)(F)F)cc1 (stereo not drawn) [Example 341, N-{2-(methylsulfanyl)-1-[4-(trifluoromethyl)phenyl]ethyl}-6-oxo-2-phenyl-1,6-dihydropyrimidine-4-carboxamide]
58 nM	24 nM			C[C@@H](NC(=O)c1cc(=O)[nH]c(-c2ncccn2)n1)c1ccc(C(F)(F)F)cc1F [Example 99, N-[(1R)-1-[2-fluoro-4-(trifluoromethyl)phenyl]ethyl}-6-oxo-1,6-dihydro-2,2′-bipyrimidine-4-carboxamide]
		42 nM	29 nM	COc1ccc(C(C)(C)c2nc(C(=O)N[C@@H](c3ccc(OC(F)(F)F)c(F)c3)C(C)C)cc(=O)[nH]2)cc1 [Example 492, N-{(1R)-1-[3-fluoro-4-(trifluoromethoxy)phenyl]-2-methylpropyl}-2-[1-(4-methoxyphenyl)-1-methylethyl]-6-oxo-1,6-dihydropyrimidine-4-carboxamide]
136 nM	110 nM			Cc1ccccc1-c1nc(C(=O)N[C@H](C)c2ccc(C(F)(F)F)cc2)cc(=O)[nH]1 [Example 141, 2-(2-methylphenyl)-6-oxo-N-{(1R)-1-[4-(trifluoromethyl)phenyl]ethyl}-1,6-dihydropyrimidine-4-carboxamide]
141 nM	118 nM			O=C(NCc1ccc(C2CC2)cc1)c1cc(=O)[nH]c(-c2ccccc2)n1 [Example 182, N-(4-cyclopropylbenzyl)-6-oxo-2-phenyl-1,6-dihydropyrimidine-4-carboxamide]
		2.1 nM	1.7 nM	CC(C)(C)[C@@H](NC(=O)c1cc(=O)[nH]c(C2CC2)n1)c1ccc(C(F)(F)F)cc1F [Example 445, 2-cyclopropyl-N-{(1R)-1-[2-fluoro-4-(trifluoromethyl)phenyl]-2,2-dimethylpropyl}-6-oxo-1,6-dihydropyrimidine-4-carboxamide]
		1.2 nM	1.2 nM	CC(C)(C)[C@@H](NC(=O)c1cc(=O)[nH]c(C2CC2)n1)c1ccc(OC(F)(F)F)c(F)c1 [Example 437, 2-cyclopropyl-N-{(1R)-1-[3-fluoro-4-(trifluoromethoxy)phenyl]-2,2-dimethylpropyl}-6-oxo-1,6-dihydropyrimidine-4-carboxamide]
138 nM	144 nM			C[C@@H](NC(=O)c1cc(=O)[nH]c(-c2ccc(F)c(F)c2)n1)c1ccc(C(F)(F)F)cc1 [Example 139, 2-(3,4-difluorophenyl)-6-oxo-N-{(1R)-1-[4-(trifluoromethyl)phenyl]ethyl}-1,6-dihydropyrimidine-4-carboxamide]
4.2 nM	3.8 nM			O=C(NC1(c2ccc(C(F)(F)F)cc2)CC1)c1cc(=O)[nH]c(-c2ccccc2)n1 [Example 276, 6-oxo-2-phenyl-N-{1-[4-(trifluoromethyl)phenyl]cyclopropyl}-1,6-dihydropyrimidine-4-carboxamide]
